Laboratory results taken from PubChem BioAssay (NCI).
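Cells were grown in 96-well plates and exposed to each compound for 48 hours at five concentrations; endpoints were interpolated linearly between bracketing concentrations, or set to the highest concentration if not reached. At the TGI there is no net growth.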

Tests used:
Assay in all cases: NCI-60 cell line screen, 48 h
[1] = test system: DLD-1 colon
[2] = test system: DMS 114 small cell lung
[3] = test system: DMS 273 small cell lung
[4] = test system: LXFL 529 NSCLC
[5] = test system: M19-MEL melanoma
[6] = test system: SNB-78 CNS
[7] = test system: XF 498 CNS
[8] = test system: HOP-18 NSCLC
[9] = test system: RXF-631 renal

Structure (SMILES)	TGI [1]	TGI [2]	TGI [3]	TGI [4]	TGI [5]	TGI [6]	TGI [7]	TGI [8]	TGI [9]
CCCCCN(CCCCC)C(=O)[C@H](CCC(=O)O)NC(=O)c1cc2ccccc2[nH]1	> 100 µM	> 100 µM	> 100 µM	> 100 µM	> 100 µM	> 100 µM	> 100 µM	–	–
Cc1cc(N(CCC#N)CCC#N)ccc1/C=C(\NC(=O)/C=C/c1ccccc1)C(=O)Nc1ccc(Cl)cc1	> 100 µM	> 100 µM	> 100 µM	> 100 µM	> 38.1 µM	> 100 µM	> 100 µM	> 100 µM	> 100 µM
O=C(Nc1ccc([N+](=O)[O-])cc1[N+](=O)[O-])C(=O)C(C(=O)c1ccc(Cl)c(Cl)c1)C1OC(=O)c2ccccc21 (stereo unspecified)	42.4 µM	59.5 µM	> 100 µM	47.3 µM	79.4 µM	93.3 µM	–	–	–
Cc1ccc(C2[C@H]3C(=O)N(c4ccc(Cc5ccc(N6C(=O)[C@@H]7ON(c8ccccc8)C(c8ccc(C)cc8)[C@@H]7C6=O)cc5)cc4)C(=O)[C@H]3ON2c2ccccc2)cc1 (stereo partly specified)	> 100 µM	> 100 µM	> 100 µM	> 100 µM	> 100 µM	–	> 100 µM	> 100 µM	–
CC1(C2COC(=O)C2)SCCCS1 (stereo unspecified)	> 100 µM	> 100 µM	> 100 µM	> 100 µM	> 100 µM	–	> 100 µM	> 100 µM	–
CCCCCCCCCCCCCCCCCCOCC(C[N+]1(C)CCC(O)CC1)OCC (stereo unspecified)	44.8 µM	12.6 µM	4.91 µM	11 µM	14.4 µM	14.7 µM	29 µM	–	21.1 µM
NCCCC(N=Cc1nc(-c2ccccc2)oc1O)C(=O)O (stereo unspecified)	> 100 µM	> 100 µM	> 100 µM	> 100 µM	> 100 µM	> 100 µM	> 100 µM	–	–
COc1ccc(/C=N/N=C(\N)NO)cc1F	> 100 µM	–	84.4 µM	> 100 µM	72.3 µM	> 100 µM	96 µM	90.5 µM	> 100 µM
C=CC(=O)Nc1ccccc1CC(c1c[nH]c2ccccc12)c1c[nH]c2ccccc12	–	30.1 µM	32.1 µM	30.6 µM	30 µM	43.8 µM	42.3 µM	–	32.3 µM
